# Read-outs that look alike come from different tables or passages of the source.
# How the values were obtained:
# [1] = Obeticholic acid solubility in various test solutions; assay type: physicochemical; settings: read-out: Dissolved concentration
# [2] = Chemical stability: obeticholic acid dimer production by HPLC (Test Example 3); assay type: physicochemical
# Protocol: The following assessments were carried out to see whether, in cases where the amorphous form of obeticholic acid was used, there were any changes in chemical stability even after wet granulation. Specifically, measurements were taken of the amounts in which obeticholic acid dimers were produced (referred to in Patent Document 2 as “Impurity 6,” “3α (3α, 7α-dihydroxy-6α-ethyl-5β-cholan-24-oyloxy)-7α-hydroxy-6α-ethyl-5β-cholan-24-oic acid,” and “6ECDCA dimer”), which were confirmed to have a high propensity to increase in the preparation process and stability tests among known related substances of obeticholic acid disclosed in Patent Document 2, for example.
# Test tubes containing the obeticholic acid prepared in Example 19 and the obeticholic acid 20 mg FC tablets of Example 4 were stored under the following conditions. The amounts in which obeticholic acid dimer was produced before (initial) and after storage were measured in accordance with Test Example 3. […]
# 4 weeks at 60° C. (closed)
# Acetonitrile/water (9/1) was added in an amount of exactly 10 mL to test tubes that had been retrieved from storage, and the contents were ultrasonically treated to extract the obeticholic acid. Following centrifugation (10 min at 3000 rpm), the supernatant was made into samples for HPLC assay (500 μg/mL obeticholic acid).
# One tablet containing 20 mg obeticholic acid (per tablet) that had been retrieved from storage was introduced into a 40 mL graduated measuring flask. Acetonitrile/water (9/1) was added to the graduated measuring flask, the contents were ultrasonically treated (10 min), and it was confirmed that the tablet had disintegrated. The contents were thoroughly shaken (60 min at 300 rpm) using a shaker, and were again ultrasonically treated to extract the obeticholic acid. Acetonitrile/water (9/1) were added to a constant volume, followed by centrifugation (10 min at 3000 rpm), and the supernatant was made into samples for HPLC assay (500 μg/mL).
# 50 mg of obeticholic acid was weighed out into a 100 mL graduated measuring flask and dissolved using acetonitrile/water (9/1) (500 μg/mL). The resulting solution was diluted with acetonitrile/water (9/1) to prepare 15.0 μg/mL (3.0%), 5.0 μg/mL (1.0%), and 0.25 μg/mL (0.05%) standard solutions.
# The above three standard solutions were used to produce a calibration curve, and the obeticholic acid dimer contained in the sample solutions was quantified. The conditions of analysis are shown below.
# Detector: Charged particle detector
# Column: by Sigma-Aldrich, SUPELCO Discovery C8 (particle size: 5 μm; internal
# Mobile phase: Acetonitrile/methanol/acetic acid aqueous solution (pH 3.0) mixture (8/1/1)
smiles,measurement,setting,value
"CC[C@H]1[C@@H](O)[C@@H]2[C@H](CC[C@]3(C)[C@@H]([C@H](C)CCC(=O)O)CC[C@@H]23)[C@@]2(C)CC[C@@H](O)C[C@@H]12 [Obeticholic acid, 6α-ethyl-3α, 7 α-dihydroxy-5β-cholan-24-oic acid]",solubility,"[1]; JP1, pH 1.2, simulated gastric fluid",4.07 µg/mL
same,solubility,"[1]; JP2, pH 6.8, aqueous buffer",306 µg/mL
same,solubility,"[1]; aqueous buffer, pH 3.0 McIlvaine buffer",4.43 µg/mL
same,solubility,"[1]; aqueous buffer, pH 4.0 McIlvaine buffer",4.66 µg/mL
same,solubility,"[1]; aqueous buffer, pH 5.0 McIlvaine buffer",11.4 µg/mL
same,solubility,"[1]; aqueous buffer, pH 6.0 McIlvaine buffer",60.6 µg/mL
same,solubility,[1]; water,21.4 µg/mL
same,Amount of obeticholic acid dimer production,"[2]; 50° C., 85% RH open 4 W",0.83%
same,Increase in obeticholic acid dimer from initial product,"[2]; 50° C., 85% RH open 4 W",0.79%
same,Amount of obeticholic acid dimer production,[2]; 60° C. closed 4 W,0.81%
same,Increase in obeticholic acid dimer from initial product,[2]; 60° C. closed 4 W,0.77%
same,Amount of obeticholic acid dimer production,[2]; Initial,0.04%

# From patent US11413295B2, “Oral preparation of obeticholic acid” (Intercept Pharmaceuticals, Inc., priority 2016, dated 2022)
